Measured values published in US10213464B2, “Method for enhancing engraftment of haematopoetic stem cells” (SCIPHARM SARL, priority 2011, dated 2019).
pEC50: −log10 of the molar value.

Tests used:
[1] = system: (Lin−, c-Kit+, Sca-1+) haematopoetic stem cells; test: [3H]cAMP accumulation assay in haematopoetic stem cells; assay type: cell-based, mouse; conditions: for cAMP accumulation, compound per se: without forskolin, FIG. 4, FIG. 5
Description: Ten mice (C57BL/6) were sacrificed by cervical dislocation. The long bones of the hind limbs (i.e., femora and tibiae) were freed of muscle and connective tissue and flushed with RPMI medium using a syringe and 27½ G needle. The cell suspension was freed from visible connective tissue, collected and transferred to centrifuge tubes. Cells were harvested by centrifugation (1,200 rpm/˜100 g for 5 min) and resuspended in 3 mL erythrocyte lysis buffer (0.15 M NH4Cl, 10 mM KHCO3, 0.1 mM EDTA, pH adjusted to 7.2 to 7.4). The cell suspension was incubated for 2 min at 20° C. followed by 4 min on ice. Thereafter, RPMI (10 mL) was added and the cells were harvested by centrifugation and counted. […] Cells were resuspended in ice-cold PBS (phosphate buffered saline) containing 2% FCS (fetal calf serum) at a cell density of 2.5*10^8 cells/mL to which a cocktail of biotinylated antibodies (“Lineage Cell Depletion Kit” of Miltenyi Biotec) containing lineage-specific antibodies directed against CD5, CD45R (B220), CD11b, GR-1 (=Ly-6G/C), 7-4, and Ter-119 at a ratio of 0.1 mL antibody solution per 10^8 cells. Cells were incubated for 20 min on ice with the antibodies and pelleted by centrifugation. […] Thereafter, the sample was diluted in MACS-buffer (30 mL), the cells were collected by centrifugation and resuspended in 6 mL of MACS-buffer. This suspension was loaded onto prepacked LS columns, which contain ferromagnetic beads coated with a cell-compatible plastic material. Typically three columns were employed for (2 mL cells suspension/column). The flow-through contained the lineage marker-negative cells (Lin^− cells), while the lineage committed cells were retained on the column. Cells were pelleted by centrifugation and resuspended in […]. Lin^−/sca1^+-cells were incubated in 1 mL of stem cell medium (Stem Span SFEM, Stem Cell Tech #09650) containing 0.5 mg/L each, benzylpenicillin and streptomycin, 50 ng/mL each murine stem cell factor (mSCF), human Flt-3, hIL-11 50 ng/mL, m-IL3 (10 ng/mL) (all from PreProTech) 10 μg/mL adenosine deaminase (Roche) and [^3H]adenine (Perkin Elmer, 1 μCi/mL). The preincubation lasted for 4 h at 37° C. […] The cells were then pelleted (5 min at 100 g), the medium was removed and the pellet was lysed in ice-cold 2.5% perchloric acid (0.9 mL) containing 0.1 mM cAMP, held on ice for 1 h and neutralized with 4.2 M KOH (0.1 mL)). Lineage marker-positive cells were preincubated in a similar manner but the medium contained RMPI instead of serum-free stem cell medium. ATP and cAMP were separated by sequential chromatography on columns containing Dowex AG50-X8 and neutral alumina (12). The fact that differences can only be seen in the presence of forskolin is a technical problem—the signal is too low in the absence of forskolin-sensitization to see any differences between the different compounds, i.e. ilo-, beraprost and treprostinil. Sensitization means that cells are sensitized for receptor response as these cells contain extremely low cAMP.

[2] = system: Lin− (Sca1+ and c-Kit+) haematopoetic stem cells; test: Bone marrow transplantation: reconstitution of bone marrow in lethally irradiated mice by ex vivo pretreated stem cells; conditions: FIG. 6
EP2-receptors = EP2-receptors (Homo sapiens, UniProt P43116); conditions: reference 10; cited from earlier work
Sequence of EP2-receptors (P43116 whole entry): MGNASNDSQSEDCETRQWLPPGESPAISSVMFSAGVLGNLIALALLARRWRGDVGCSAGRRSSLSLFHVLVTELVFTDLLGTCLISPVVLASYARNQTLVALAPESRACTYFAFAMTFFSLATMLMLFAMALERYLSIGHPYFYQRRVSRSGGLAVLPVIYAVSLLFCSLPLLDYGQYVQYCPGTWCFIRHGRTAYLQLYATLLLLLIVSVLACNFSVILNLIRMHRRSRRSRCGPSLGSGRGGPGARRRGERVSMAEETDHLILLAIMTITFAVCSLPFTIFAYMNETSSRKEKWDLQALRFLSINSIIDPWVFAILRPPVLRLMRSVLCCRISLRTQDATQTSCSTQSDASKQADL

EP4-receptors = EP4-receptors (Homo sapiens, UniProt P35408); conditions: reference 10; cited from earlier work
Sequence of EP4-receptors (P35408 whole entry): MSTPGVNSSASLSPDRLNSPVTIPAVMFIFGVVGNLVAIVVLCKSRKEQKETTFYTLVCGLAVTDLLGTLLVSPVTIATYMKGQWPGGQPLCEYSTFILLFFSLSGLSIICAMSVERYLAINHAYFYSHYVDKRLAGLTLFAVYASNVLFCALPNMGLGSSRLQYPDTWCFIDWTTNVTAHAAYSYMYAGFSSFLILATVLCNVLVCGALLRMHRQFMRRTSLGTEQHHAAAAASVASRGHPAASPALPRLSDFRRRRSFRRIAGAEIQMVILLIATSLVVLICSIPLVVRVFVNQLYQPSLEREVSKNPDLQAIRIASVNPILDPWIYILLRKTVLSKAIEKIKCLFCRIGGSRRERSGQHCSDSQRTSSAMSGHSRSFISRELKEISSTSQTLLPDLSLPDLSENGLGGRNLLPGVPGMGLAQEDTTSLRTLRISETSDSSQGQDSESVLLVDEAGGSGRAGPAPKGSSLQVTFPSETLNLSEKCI

[3] = system: Lin+ haematopoetic cell fraction; test: [3H]cAMP accumulation assay in lineage marker-positive cells; assay type: cell-based, mouse; conditions: data not shown
Description: Ten mice (C57BL/6) were sacrificed by cervical dislocation. The long bones of the hind limbs (i.e., femora and tibiae) were freed of muscle and connective tissue and flushed with RPMI medium using a syringe and 27½ G needle. The cell suspension was freed from visible connective tissue, collected and transferred to centrifuge tubes. Cells were harvested by centrifugation (1,200 rpm/˜100 g for 5 min) and resuspended in 3 mL erythrocyte lysis buffer (0.15 M NH4Cl, 10 mM KHCO3, 0.1 mM EDTA, pH adjusted to 7.2 to 7.4). The cell suspension was incubated for 2 min at 20° C. followed by 4 min on ice. Thereafter, RPMI (10 mL) was added and the cells were harvested by centrifugation and counted. The typical yield of cells was 3*10^7/mouse. Cells were resuspended in ice-cold PBS (phosphate buffered saline) containing 2% FCS (fetal calf serum) at a cell density of 2.5*10^8 cells/mL to which a cocktail of biotinylated antibodies (“Lineage Cell Depletion Kit” of Miltenyi Biotec) containing lineage-specific antibodies directed against CD5, CD45R (B220), CD11b, GR-1 (=Ly-6G/C), 7-4, and Ter-119 at a ratio of 0.1 mL antibody solution per 10^8 cells. Cells were incubated for 20 min on ice with the antibodies and pelleted by centrifugation. […]

EP3-receptors = biological target: T1, EP3-receptors (Homo sapiens, UniProt P43115); conditions: Gi-coupled, inhibit cAMP accumulation; cited from earlier work
T1 sequence (P43115 1-390): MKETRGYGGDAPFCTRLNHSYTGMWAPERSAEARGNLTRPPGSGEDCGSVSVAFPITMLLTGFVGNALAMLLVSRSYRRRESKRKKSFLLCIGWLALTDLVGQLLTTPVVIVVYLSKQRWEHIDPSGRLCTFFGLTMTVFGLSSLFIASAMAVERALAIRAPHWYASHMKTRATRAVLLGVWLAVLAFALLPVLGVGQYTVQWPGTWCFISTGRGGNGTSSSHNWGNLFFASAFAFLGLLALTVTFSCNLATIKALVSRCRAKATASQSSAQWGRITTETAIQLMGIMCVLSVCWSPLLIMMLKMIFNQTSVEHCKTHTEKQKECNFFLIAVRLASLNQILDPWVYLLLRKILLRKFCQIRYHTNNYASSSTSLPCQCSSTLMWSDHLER

haematopoetic stem cells [4] = conditions: references 7, 8; cited from earlier work
haematopoetic stem cells [5] = conditions: in vivo; cited from earlier work

CC#CCC(C)C(O)C=CC1C(O)CC2Oc3c(CCCC(=O)O)cccc3C21 (stereo not shown) [Beraprost, 2,3,3a,8b-tetrahydro-2-hydroxy-1-(3-hydroxy-4-methyl-1-octen-6-ynyl)-1H-cyclopenta(b)benzofuran-5-butanoic acid]
cAMP accumulation, compound per se ([1]; stimulation 1 h): modest accumulation of cAMP

CC#CCC(C)[C@H](O)/C=C/[C@@H]1[C@H]2C/C(=C/CCCC(=O)O)C[C@H]2C[C@H]1O (stereo partly drawn) [Iloprost, 5-{(E)-(1S,5S,6R,7R)-7-hydroxy-6[(E)-(3S, 4RS)-3-hydroxy-4-methyl-1-octen-6-inyl]-bi-cyclo[3.3.0]octan-3-ylidene}pentanoic acid]
cAMP accumulation, compound per se ([1]; stimulation 1 h): modest accumulation of cAMP

CCCCC[C@H](O)CC[C@@H]1[C@H]2Cc3cccc(OCC(=O)[O-])c3C[C@H]2C[C@H]1O.[Na+] [Treprostinil, (1R,2R,3aS,9aS)-[[2,3,3a,4,9,9a-hexahydro-2-hydroxy-1-[(3S)-3-hydroxyoctyl]-1H-benz[f]inden-5-yl]oxy]acetic acid monosodium salt]
level of circulating white blood cells ([2]; day 60 after injection of 3*10^5 cells pretreated ex vivo with 10 μM for 1 h at 37° C., versus vehicle-treated cells): significantly higher levels of circulating white blood cells
effectiveness compared with positive control cholera toxin ([2]; ex vivo pretreatment, white blood cell count): as effective as the positive control cholera toxin
concentration range of concentration-dependent accumulation of cAMP ([1]; FIG. 5): 0.1 to 10 µM
pEC50 ([1]; Mus musculus, concentration-response curve, FIG. 5, read-out: estimated EC50 of cAMP accumulation): ~6.52
increase in cAMP levels when combined with forskolin ([1]; combined with forskolin, stimulation 1 h, FIG. 4): exceeded that caused by the IP-(I prostanoid) receptor-specific compounds Iloprost and Beraprost
cAMP accumulation, compound per se ([1]; stimulation 1 h, listed as Trepostinil, monosodium salt): increase of cAMP is significant
cAMP accumulation, compound per se ([1]; stimulation 1 h, monosodium salt): modest accumulation of cAMP
stimulation of EP2-receptors (EP2-receptors): stimulates
stimulation of EP4-receptors (EP4-receptors): stimulates
cAMP levels in Lin+ cells [3]: failed to increase cAMP levels
agonism at EP3-receptors (EP3-receptors): low affinity agonist

CCCCC(C)(C)[C@H](O)/C=C/[C@H]1[C@H](O)CC(=O)[C@@H]1C/C=C\CCCC(=O)O [dimethyl-PGE2]
engraftment after pretreatment (haematopoetic stem cells [4]): enhances their engraftment
agonism at EP3-receptors (EP3-receptors): full agonist

cholera toxin
(Lin−) precursor cells in the bone marrow after pretreatment (haematopoetic stem cells [5]): about twice as many
